# Source: patent US8518383B2, “Oral care products comprising buffer systems for improved mineralization/remineralization benefits” (Wm. Wrigley Jr. Company, priority 2006, dated 2013)
# Test: in-vitro pH cycling model, enamel microhardness (remineralization efficacy)
# Parameters: species or system human
# Procedure: The purpose of this test was to evaluate in-vitro efficacy of soluble calcium and phosphate combinations. Testing was conducted at the University of Indiana. Enamel specimens (3×3×3 mm diameter window) were removed from extracted human teeth and mounted on acrylic rods. The enamel surface was ground and polished using alumina slurry, rinsed with deionized water, and air dried. Artificial lesions were then formed in the enamel specimens by a 96 hr immersion in a partially saturated HAP acid buffer consisting of 0.1 mM lactic acid and 0.2 wt % Carbopol C907 adjusted to a pH of 5. Four baseline indentations per specimen were placed with a Vickers diamond at a 200 g load for 15 seconds and the indentation lengths had to be in a range from 25-45 microns. Enamel specimens (N=18 per treatment) were then cycled daily through a series of solutions repeated over an 8 day time period. Artificial saliva, acid challenge and pooled whole saliva solutions were prepared fresh daily. After treatment, the enamel microhardness was assessed and the difference between initial and final microhardness was calculated as a measure of remineralization efficacy. The data was then statistically analyzed with overall treatment comparisons calculated using an ANOVA model at α=0.05. Post ANOVA pairwise comparisons were made using a 2 tailed student t-test.
# Artificial saliva with active treatments (1 hr, 4× daily)
# Saliva treatment (0.05 ppm fluoride, 30 min daily)
# Acid challenge (partially saturated HAP acid/carbopol buffer, Ph 5.0, 20 min., 3× daily)
# Saliva film in a humid environment (overnight)
# Comparison of Ca-citrate and Ca-citrate+Phosphate blend vs. Ca-lactate (see FIG. 1)
structure (smiles),measurement,setting,value
CC(O)C(=O)[O-].CC(O)C(=O)[O-].[Ca+2] (stereo not drawn) [Ca-lactate],dose response of enamel rehardening,500 and 1500 ppm,No significant dose response
"O=C([O-])CC(O)(CC(=O)[O-])C(=O)[O-].O=C([O-])CC(O)(CC(=O)[O-])C(=O)[O-].[Ca+2].[Ca+2].[Ca+2] [CaCit (811), Ca Citrate]",ΔVSMH (difference between initial and final enamel microhardness),"Ca 811 ppm (0.38% salt) in artificial saliva, 1 hr 4x daily, 8 day pH cycling, mean, N=18",29.65
same,ΔVSMH (difference between initial and final enamel microhardness),"Ca 811 ppm (0.38% salt) in artificial saliva; 1 hr 4x daily, 8 day pH cycling; mean, N=18; 0.38%)",29.55
same,"enamel rehardening, comparison in words","pairwise comparison of treatment groups, see value",higher enamel rehardening over Ca-lactate
"CC(O)C(=O)[O-].CC(O)C(=O)[O-].O.O.O.O.O.[Ca+2] (stereo not drawn) [CaLac (500), Ca Lactate 5-hydrate]",ΔVSMH (difference between initial and final enamel microhardness),"Ca 500 ppm in artificial saliva, 1 hr 4x daily, 8 day pH cycling, mean, N=18",4.78
"CC(O)C(=O)[O-].CC(O)C(=O)[O-].O.O.O.O.O.[Ca+2] (stereo not drawn) [CaLac (1500), Ca Lactate 5-hydrate]",ΔVSMH (difference between initial and final enamel microhardness),"Ca 1500 ppm in artificial saliva, 1 hr 4x daily, 8 day pH cycling, mean, N=18",5.99
